From patent US9328131B2, “Benzimidazolium compounds” (Boehringer Ingelheim International GmbH, priority 2013, dated 2016)

Tests used:
[1] = Permeability in CALU-3 cells; format: in vitro ADME; details: human, CALU-3 monolayers, pH 7.4, 37° C., 10 μM compound
Protocol: Permeability in CALU-3 cells:
Permeability measurements across polarized, confluent CALU-3 cell monolayers grown on permeable filter supports are used to provide information on the potential of a compound to pass the lung epithelium. Apparent permeability coefficients (Papp) of the compounds across the CALU-3 cell monolayers are measured (pH 7.4, 37° C.) in apical-to-basal (AB) and basal-to-apical (BA) transport direction.
CALU-3 cells (1−2×10^5 cells/1 cm^2 area) are seeded on filter inserts (Costar transwell polycarbonate filters, 0.4 μm pore size) and cultured (DMEM) for 10-12 days until tight monolayers are formed. Compounds of interest are dissolved in appropriate solvent (DMSO, 10 mM stock solution). Stock solutions are diluted with HTP-4 buffer (128.13 mM NaCl, 5.36 mM KCl, 1 mM MgSO4, 1.8 mM CaCl2, 4.17 mM NaHCO3, 1.19 mM Na2HPO4×7H2O, 0.41 mM NaH2PO4×H2O, 15 mM HEPES, 20 mM glucose, 0.25% BSA, pH 7.4) to prepare the transport solutions (10 μM compound, final DMSO<=0.5%). The transport solution (TL) is applied to the apical or basolateral donor side for measuring A-B or B-A permeability (3 filter replicates), respectively. The receiver side contains the same buffer as the donor side. After 30 min of accommodation, samples are collected at the start t0=0 min and at the end of the experiment tn=90 min from the donor and at 0, 30, 60, and 90 min also from the receiver chamber. Volume removed is replenished by HTP-4 buffer. The compound concentration in the samples is measured by HPLC-MS/MS or scintillation counting. The permeability coefficient (Papp) and efflux ratio are calculated according to: Papp[cm/s]=(concentration receiver[nM]*volume receiver[mL]/time interval[sec])*(1/filter area)*(1/donor concentration[nM])
With example compounds given above, the following permeability values were determined in the CALU-3 cells assay: […]

[2] = tested on: Mouse kidney M-1 cells; assay: Ussing Chamber assay: inhibition of amiloride sensitive short circuit current; format: cell-based; details: compound in the apical solution, 37° C.
Protocol: Ussing Chamber: Mouse kidney M-1 cells were cultivated in DMEM containing 5% FCS and 5 μM dexamethasone for 10 to 12 days on polyester transwell filters. Filters were inserted into a teflon-coated well-plate which fit into the ussing chamber system. Prior to measurement the medium of M−1 cells was replaced with Caco-2 transport buffer (Invitrogen, Germany). During measurements, the Ussing chamber temperature was kept at 37° C. Short circuit currents (l_sc) were measured in the voltage-clamp mode with the software package Lab View for data acquisition and analysis. The transepithelial electrical resistance (TEER) was determined by the application of voltage steps of ±5 mV every 5 sec. Compounds were administered at a final concentration of 3 μM or at increasing concentrations (1-3-10 μM) to the apical solution. At the end of each experiment the amiloride sensitive l_SC was measured by adding 3 μM amiloride to the apical compartment. Results are expressed as inhibition in percent of the amiloride effect or as IC50.
With the example compounds given above, the following IC50 values were determined in the Ussing Chamber assay: […]

SMILES	Papp A→B at 90 min, 10 μM ([1]; apical-to-basal)	Papp B→A at 90 min, 10 μM ([1]; basal-to-apical)	IC50 [2]	Papp A→B ([1]; apical-to-basal)	Papp B→A ([1]; basal-to-apical)
CCOP(=O)(OCC)c1ccc(CCC[n+]2c(CNC(=O)c3nc(Cl)c(N)nc3N)n(CC)c3cc(OC)ccc32)cc1.O=C([O-])C(F)(F)F [Example 1.1]	0.16 ×10⁻⁶ cm/s	0.28 ×10⁻⁶ cm/s	2 nM	–	–
CCn1c(CNC(=O)c2nc(Br)c(N)nc2N)[n+](CCOCCOCCO)c2ccc(OC)cc21.O=C([O-])C(F)(F)F [Example 2.1]	0.23 ×10⁻⁶ cm/s	0.4 ×10⁻⁶ cm/s	1 nM	–	–
CC[n+]1c(CNC(=O)c2nc(Cl)c(N)nc2N)n(C2CCN(C(C)=O)CC2)c2ccccc21.O=C[O-] [Example 3.1]	1.7 ×10⁻⁶ cm/s	0.45 ×10⁻⁶ cm/s	5 nM	–	–
CC[n+]1c(CNC(=O)c2nc(Cl)c(N)nc2N)n(CCCP(=O)(O)O)c2ccc(OC)cc21.O=C([O-])C(F)(F)F [Example 4.1]	< 0.34 ×10⁻⁶ cm/s	0.08 ×10⁻⁶ cm/s	56 nM	–	–
CCOP(=O)([O-])CCCn1c(CNC(=O)c2nc(Cl)c(N)nc2N)[n+](CC)c2cc(OC)ccc21 [Example 5.1]	–	–	29 nM	0.17 ×10⁻⁶ cm/s	0.05 ×10⁻⁶ cm/s
